Series [1] in a line: Nitric oxide generation in vitro, spontaneous release in the absence of washed platelets (chemiluminescence). The conditions noted are these: without platelets, B-NOD 10, 100 or 1000 μM. As for the experimental part:
(§1) Venous blood was collected from healthy volunteers who had not previously been taking any drugs for at least two weeks; EDTA was used as an anticoagulant. Washed platelets were prepared as described in Radomski, M. and Moncada, S. (1983) An improved method for washing of human platelets with prostacyclin. Thromb Res 83,383-389, the disclosure of which is incorporated herein by reference, with some modifications. In brief, blood was centrifuged for 10 minutes at 200 g, and the resultant platelet rich plasma was removed. It was recentrifuged at 500 g for 10 minutes. The supernatant was discarded and the pellet was resuspended in Tyrode's solution. Platelet concentration was adjusted to 2×10^8 platelets/ml using a Coulter Counter (Model ZBI, Beckman-Coulter, Fullerton, Calif.). […]
(§2) The supernatant was analyzed for nitric oxide generation by chemiluminescence. […] Chemiluminescence was measured using a reducing system consisting of a ferrocene derivative dissolved in acetonitrile containing 1% perchloric acid, as described in Termin, A., Hoffmann, M. and Bing, R. J. (1992) A simplified method for the determination of nitric oxide in biological solutions. […] Under this condition, NO2 in the injected samples was reduced to NO and detected by chemiluminescence with the NO-analyzer (270 B, Sievers Res. Inc., Boulder, Colo.). […]

The test system of another series is washed platelets. Put plainly: Nitric oxide generation in vitro in the presence of washed platelets (chemiluminescence). It is filed as cell-based, human. To be noted: B-NOD 10, 100 or 1000 μM. As for the experimental part:
as §1, §2

The test system of series [2] is cGMP production in platelets. Put plainly: Platelet cGMP in vitro (acetylation enzyme immunoassay). It is filed as cell-based. To be noted: human washed platelets; B-NOD 10, 100 or 1000 μM, 10 minutes. As for the experimental part: Washed platelets were prepared from human blood as described above. 400 μl aliquots were incubated in the presence of B-NOD (10, 100 or 1000 μM) or methanol for 10 minutes. Incubations were terminated by centrifugation at 1000 g and the supernatant was removed. Ice-cold phosphate buffer was added to the pellets, and the pellets were sonicated for 20 seconds. cGMP was measured using an acetylation enzyme immunoassay system (Biotrak, Piscataway, N.J.).

A further series relates to platelet aggregation. Put plainly: Platelet aggregation in vitro, thrombin as agonist (nephelometric aggregometer). The conditions noted are these: rabbit washed platelets; B-NOD 10, 100 or 1000 μM, 10 min preincubation; thrombin 0.04 to 0.14 U/ml. It is filed as cell-based, New Zealand rabbits. As for the experimental part:
Healthy male New Zealand rabbits were anesthetized with pentobarbital (10 mg/kg iv), ketamine (40 mg/kg im), xylazine (10 mg/kg im) and atropine (0.5 mg im). They were […] and mechanically ventilated with 95% oxygen (rate 40 strokes/min, tidal volume 25 ml). The heart was exposed with a median sternotomy, blood (40 ml) was collected from the right ventricle and washed platelets were prepared as described above. Platelet aggregation was monitored by a standard nephelometric technique in which 0.5 ml of platelet suspension (2×10^8 platelets/ml) were incubated at 37° C. and stirred at 1000 rpm in an aggregometer (Model PAP-3, Bio/Data corporation, Horsham, Pa.). The antiaggregant effects of B-NOD (10, 100 or 1000 μM) were tested by incubating platelets with B-NOD at 37.8° C. before the addition of thrombin. Incubation was carried out for 10 min. Thrombin was used as an agonist at relatively low concentrations (0.04 to 0.14 U/ml) to obtain submaximal aggregation in order to evaluate the drug's inhibitory effect.

Series [3] in a line: Nitric oxide generation in vivo, plasma NOx after oral administration. Also noted: species or system New Zealand White male rabbits. To be noted: 80 mg/kg orally, rabbits. As for the experimental part: (§3) New Zealand White male rabbits were given 80 mg/kg of B-NOD. B-NOD was dissolved in 2 ml DMSO, suspended in 8 ml carboxymethylcellulose (0.5%) and administered orally. Blood (1 ml) was drawn from the ear vein using heparinized syringes before and 10 minutes, 30 minutes, 1 hour, 3 hours, 5 hours, 7 hours, and 24 hours following B-NOD administration. Blood samples were centrifuged at 1200 g for 10 minutes and deproteinized by an ultrafiltration device (MPS Micropartition, Millipore Corporation, Bedford, Mass.) and centrifuged again at 2500 g for 90 minutes. Plasma NOx was measured by chemiluminescence as described above.
(§4) Heart rate and systolic and diastolic blood pressures were measured through a 22 gauge by one inch catheter inserted into the ear artery connected to a DIGI-MED™Heart Performance Analyzer 100 (Louisville, Ky.). Determination of blood pressure and heart rate were carried out prior to and 1, 3, 5 hours after B-NOD administration. FIG. 4 illustrates concentrations of NOx in plasma of animals up to 24 hours following administration of B-NOD.

Series [4] in a line: Blood pressure and heart rate after oral administration. The conditions noted are these: 80 mg/kg orally, rabbits; one, three and five hours following administration. It is filed as in vivo, New Zealand White male rabbits. As for the experimental part: as §3, §4
Several NO donors are known to cause a fall in blood pressure, particularly when administered intravenously.

On to `O=C(Oc1cccc(CO[N+](=O)[O-])c1)c1ccccc1O` [B-NOD, 3-(nitrooxymethyl)phenyl 2-hydroxybenzoate], for which, in series [1], the “NO production (NOx)” value is reported as “increased NO production in a dose-dependent manner”. For the same compound, in series [1] (37° C., 10 minutes), the “maximal NO release” value is 98 µmol/L. For the same compound, in the series on washed platelets (in the presence of platelets (2×10^8 platelets/ml), 10 minutes), the “maximal NO release” value turned out to be 156 µmol/L. Besides, in the series with washed platelets (with platelets), the “NO production (NOx)” value is on record as “increased NO production in a dose-dependent manner”. In addition, the “cyclic GMP production in platelets” value in series [2] is recorded as “increased cyclic GMP production in a dose-dependent manner”. In addition, the “inhibition of platelet aggregation as compared to the control” value in the series on platelet aggregation is reported as “approximately 25%”. Further, the “NOx concentration in plasma after 24 hours” value in series [3] (24 hours) is “returned to control values”. Also, the “NOx concentration in plasma, course to seven hours” value in series [3] (seven hours following administration) is “plateaued for seven hours”. Further, the “NOx concentration in plasma” value in series [3] (three hours following administration (increase from 59 before administration)) turned out to be 115 µmol/L. In addition, in series [4], the diastolic pressure entry is listed as “did not affect”, the heart rate entry was “failed to change” and the systolic pressure result is reported as “did not affect”.

Values taken from patent publication US6538033B2, “Nitric oxide donor compounds” (Huntington Medical Research Institutes, priority 2000, dated 2003).
